Key:
Type in all cases: cell-based
[1] = tested on: Huh7 human hepatoma cells; experiment: MTS cell viability, Huh7 (Example 2); conditions: Huh 7, MTS on 3rd day
Procedure: (§1) The cells (0.2×10^6/ml) were incubated in a sterile fashion in 100 μl of culture medium (RPMI-1640 supplemented with 10% foetal calf serum, penicillin, streptomycin and amphotericin B) at day DO with variable quantities (from […]) of C4diP, tBuC4diP or C8C4diP at 37° C. and 5% CO2 in a water-saturated atmosphere. On the 3rd day, 20 μl of MTS (non radioactive cell proliferation test (Promega Cat. #: G 3580) are added to the previous 100 μl and then a spectrophotometric reading is carried out at 490 nm after 2 hours of incubation against reagent blanks.
(§2) The cell lines used are as follows: • keratinocytes • WBC: leucocytes • MEWO: human skin melanoma • jurkat: T-cell acute lymphoblastic leukaemia. Cells of the T-lymphocyte type. • HL-60: promyelocytary acute leukaemia. Cells of the promyeloblast type. • Huh7: human hepatoma • Hep-G2: hepatocellular carcinoma.
(§3) The anticancerous effect of C4diP, tBuC4diP and C8C4diP is evaluated by measuring cell viability as a function of variable quantities of these compounds.
(§4) In order to determine the anticancer effect of C4diP, tBuC4diP and C8C4diP on a particular tumour cell culture, the IC50 was calculated.

[2] = tested on: keratinocytes, non tumoral cells; experiment: MTS cell viability, keratinocytes (Example 2); conditions: Keratinocyte, Keratonicytes, MTS on 3rd day
Procedure: as §1, §2, §3, §4

[3] = tested on: jurkat T-cell acute lymphoblastic leukaemia cells; experiment: MTS cell viability, Jurkat (Example 2); conditions: Homo sapiens, MTS on 3rd day
Procedure: as §1, §2, §3, §4

[4] = tested on: HL-60 promyelocytary acute leukaemia cells; experiment: MTS cell viability, HL-60 (Example 2); conditions: Homo sapiens; HL-60, MTS on 3rd day
Procedure: as §1, §2, §3, §4

[5] = tested on: Hep-G2 hepatocellular carcinoma cells; experiment: MTS cell viability, HepG2 (Example 2); conditions: Homo sapiens; HepG2, MTS on 3rd day
Procedure: as §1, §2, §3, §4

[6] = tested on: MEWO human skin melanoma cells; experiment: MTS cell viability, Mewo (Example 2); conditions: MTS on 3rd day
Procedure: as §1, §2, §3, §4

[7] = tested on: WBC (leucocytes), non tumoral cells; experiment: MTS cell viability, WBC (Example 2); conditions: Leucocyte, MTS on 3rd day
Procedure: as §1, §2, §3, §4

[8] = tested on: human PBMC (peripheral blood mononuclear cells); experiment: MTS cell viability, human PBMC primary culture (Example 3); conditions: primary culture of human PBMC (WBC, healthy lymphocytes), read-out: IC50 (mean concentration for 50% mortality)
Procedure: as §1, with “C4diP” for “C4diP, tBuC4diP or C8C4diP”, “At” for “On”, “4th” for “3rd”, “(non-radioactive” for “(non radioactive”, “is” for “are”
In order to determine the anticancer effect of C4diP on a particular culture of tumour cells, the IC50 was calculated.
The protocol used is that described previously in example 1. When vinblastin is used in the culture medium, it replaces C4diP.

Structure (SMILES) | IC50 [1] [µM] | IC50 [2] [µM] | IC50 [3] [µM] | IC50 [4] [µM] | IC50 [5] [µM] | IC50 [6] [µM] | IC50 [7] [µM] | IC50 [8] [µM]
CCCCCCCC(=O)/C(C)=C/C(Cc1cc(C(=O)CCCCCCC)cc(Cc2cc(C(=O)CCCCCCC)cc(Cc3cc(C(=O)CCCCCCC)cc(CC)c3OP(=O)(O)O)c2O)c1OP(=O)(O)O)=C(\C)O [C8C4diP, para-octanoyl-calyx[4]arene dihydroxyphosphonic acid] | 270 | 46 | 113 | 1000 | 1000 | 1000 | 95 | –
CC[C@]1(O)C[C@@H]2CN(CCc3c([nH]c4ccccc34)[C@@](C(=O)OC)(c3cc4c(cc3OC)N(C)[C@H]3[C@@](O)(C(=O)OC)[C@H](OC(C)=O)[C@]5(CC)C=CCN6CC[C@]43[C@@H]65)C2)C1 [vinblastin, reference compound] | – | – | – | – | – | – | – | 0.005

From patent US20100056482A1, “Calixarene Derivatives as Anticancer Agent” (CENTRE NATIONAL DE LA RECHERCHE SCIENTIFIQUE-CNRS, priority 2006, published 2010)
